TGI and GI50 data for 15 molecules are collected here from PubChem BioAssay (NCI).

Molecules are shown by their SMILES.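 Each compound was tested at five concentrations against cells in 96-well plates for 48 hours. GI50 = concentration required for 50% inhibition of growth. TGI marks complete inhibition of growth.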 A value given as a limit tells only on which side of the number the result lay.

What all share (experiment): inhibition of tumour cell growth, NCI panel, 48 h
In test [1] the test system is OVCAR-8 ovarian.
Test [2] concerns SF-268 CNS.
Test [3] concerns ACHN renal.
The test system of test [4] is RPMI-8226 leukemia.
For test [5], the system named is NCI-H23 lung.
In test [6] the test system is SF-295 CNS.
Test [7] deals with A498 renal.
In test [8] the test system is SNB-19 CNS.
Test [9] has as its system SN12C renal.
In test [10] the test system is CAKI-1 renal.

In the case of `CC(c1ccccc1)/[N+]([O-])=C/c1ccccc1` (stereo not drawn), the TGI in test [1], in [2], in test [3], in test [4], in [5] and in test [6] was over 100 µM in each case. Also, the TGI in test [7] and in test [8] was over 100 µM each time.

With `CC1OC1C(=O)C1(O)C(C)C(O)C23OC2(C(O)c2c(O)cccc2C3=O)C1O` (stereo not drawn), the TGI in test [1] worked out at 1.72 µM; in [9], 0.343 µM; in test [2], 0.525 µM; in test [4], 0.73 µM; in test [5], 0.543 µM; in test [10], 0.253 µM. Also, the TGI came out at 0.693 µM in [6], 1.2 µM in test [7] and 0.742 µM in test [8].

`CN1CCN(c2cc(-c3cc4ccccc4o3)oc(=O)c2C#N)CC1`: the TGI in test [1], in [9], in test [2], in test [3], in test [4] and in test [5] was over 100 µM each time. Moreover, the TGI in test [10], in [6], in test [7] and in test [8] was over 100 µM each time.

Turning to `O=C(NN1C(=O)CSC1c1ccc(C(F)(F)F)cc1)c1ccncc1` (stereo not drawn), the TGI in [1], in [9], in test [2], in test [4], in [5] and in test [10] was over 100 µM in each case. The TGI in [6] was over 100 µM; in test [7], over 31.6 µM; in [8], over 100 µM.

With `O=C(O)CC1OCC=C2CN3CCC45C6=CC(=O)C(=O)C([N+](=O)[O-])=C6NC4C1C2CC35` (stereo not drawn), the TGI in [1], in test [9], in test [2], in [3], in [4] and in [5] was over 100 µM in each case. For the same molecule, the TGI in [10], in test [6], in [7] and in test [8] was over 100 µM in each case.

For `C[C@]12CCc3sc(Nc4ccc(O)cc4)nc3C1=CC[C@@H]1[C@@H]2CC[C@]2(C)C(=O)CC[C@@H]12`, the GI50 in [1] was 3.22 µM; in test [9], 2.91 µM; in [2], 3.37 µM; in [3] it was 2.92 µM; in test [4], 2.35 µM; in [5], 3.96 µM. Further, the GI50 in [6] is 5.26 µM; in test [7], 14.2 µM; in [8], 10.9 µM. The TGI in test [1] was over 100 µM; in test [9], over 100 µM; in [2] it was over 100 µM; in test [3], 9.29 µM; in test [4], 7.07 µM; in [5], over 100 µM. Also, the TGI in [6] was 35.9 µM; in [7] it was 80.6 µM; in [8] it was over 100 µM.

On to `CC(CCC(=O)O)C1CCC2C3C(O)CC4CC(O)CCC4(C)C3CC(O)C12C` (stereo not drawn), for which the TGI in [1], in test [9], in test [2], in test [3], in test [4] and in [5] was over 100 µM in each case. The TGI in [10], in test [6], in [7] and in test [8] was over 100 µM each time.

For the molecule `O=C(O)CC1(CC(=O)O)Nc2ccccc2SC1=O`, the TGI in test [1], in test [9], in test [2], in test [3], in [4] and in [5] was over 100 µM each time. For the same molecule, the TGI in test [10], in [6], in test [7] and in test [8] was over 100 µM each time.

For `C/C(=N\NC(=S)Nc1ccc(C)cc1)c1nc2ncccc2[nH]1`, the TGI was 12.3 µM in [1]; 30.8 µM in test [9]; 35.7 µM in test [2]; 14.3 µM in [3]; over 100 µM in test [4]; 19.8 µM in [5]. Besides, the TGI in [10] is over 100 µM; in [7] it was 23.4 µM; in test [8], over 100 µM.

For the molecule `COc1ccc(-c2c3c(nc4nc(SC)nc(SC)c24)CCCC3)cc1OC`, the TGI in [9], in test [2], in test [3], in [4], in test [5] and in test [10] was over 100 µM in each case. For the same molecule, the TGI in [6], in test [7] and in [8] was over 100 µM in each case.

As for `CCSc1nc(=[N+]2CCCC2)ss1`, the TGI was over 100 µM in [1]; over 100 µM in [9]; over 100 µM in [2]; over 100 µM in test [3]; 22.8 µM in [4]; over 79.9 µM in test [5]. Moreover, the TGI in test [10], in [6], in test [7] and in test [8] was over 100 µM throughout.

With `COc1cc2c(cc1OC)C(C)N(C)c1c-2c(OC(C)=O)cc2cc(OC)c(OC)cc12` (stereo not drawn), the TGI in test [1] was 33.2 µM; in test [9], over 46.2 µM; in [2] it was over 100 µM; in [3], 97 µM; in [4] it was over 59 µM; in test [5] it was 36.7 µM. Further, the TGI in test [10] is 49.5 µM; in test [6] it was 53.4 µM; in test [7], over 52.9 µM; in [8], over 100 µM.

Take `O=C1OCC/C1=C/c1ccc(N=Nc2c(O)ccc3ccccc23)cc1`: the TGI in test [1] stood at 72 µM; in [9], 45.1 µM; in [2] it was 44.7 µM; in test [3], 31.8 µM; in test [4] it was 53.8 µM; in [5], 44.8 µM. Further, the TGI is 34.8 µM in test [10], 47.8 µM in test [6], 34.2 µM in test [7] and over 100 µM in [8].

For `NC(=S)N/N=C1\c2ccccc2CCC1CCC1(O)CCc2ccccc2C1=O` (stereo not drawn), the TGI in test [1] was 35.1 µM; in test [9] it was 39.8 µM; in test [2] it was over 100 µM; in [3] it was over 100 µM; in test [4], 70.4 µM; in test [5], 87 µM. The TGI is over 100 µM in test [10], 59 µM in test [6] and over 100 µM in [8].

Consider `CCc1nnc(-c2nsc3ccccc23)s1`, for which the TGI in test [1], in test [9], in test [2], in test [3], in test [4] and in test [5] was over 100 µM each time. For the same molecule, in [8], the TGI is over 100 µM.
